# From patent US7045147B1, “Controlled release peroral compositions of levosimendan” (Orion Corporation, priority 1998, dated 2006)
# Columns and labels:
# [1] = Steady-state clinical study: plasma levels of levosimendan and metabolite (II) after 7 days levosimendan administration; type: in vivo; conditions: human, po, 1 mg levosimendan orally three times a day for 7 days, healthy volunteers, formulation as Formulation 3 except 1 mg levosimendan and Avicel PH-200 51.0 mg, N 14, read-out: Mean plasma level of levosimendan (day 7)
# Description: The steady-state plasma level for metabolite (II) can be measured for any composition by administering the composition of levosimendan to a volunteer or group of volunteers once or several times a day for several days until a steady state level of (II) is reached. The plasma levels of the active metabolite (II) can then be measured according to the procedure described in detail in Example 2.
# The active metabolite (II) is added in 20 μl of phosphate buffer, pH 7.2 to 0.5 ml of analyte-free plasma. The amounts of analyte added are 0.100, 0.250, 0.500, 1.00, 2.50, 3.75, 5.00, 7.50 and 12.5 ng. After being vortexed for 20 seconds and left standing for 10 minutes, the 2500 pg of internal standard (R)-N-[4-(1,4,5,6-tetrahydro-4-ethyl-6-oxo-3-pyridazinyl)phenyl]acetamide is added in 20 μl of phosphate buffer, pH 7.2. The mixture is vortexed for 1 minute and left standing for 15 minutes. The calibration samples are alkalised with 50 μl of 0.1 M sodium hydroxide and vortexed for 20 seconds. […]
# Determinations are carried out by using the selected reaction monitoring technique. […] The selected reaction monitoring chromatograms are recorded using a PE Sciex API 300 Data System.
# Peak area ratios of analyte and its internal standard are plotted against concentrations. […] The limit of quantitation is 0.200 ng/ml. […]
# [2] = cited from earlier work
# [3] = Pharmacokinetics of levosimendan and its active metabolite (elimination half-life, absorption); type: in vivo, human; conditions: active first-pass metabolite of levosimendan
# Excerpt: The hemodynamic effects of levosimendan in man are described in Sundberg, S. et al., Am. J. Cardiol., 1995; 75: 1061-1066. Pharmacokinetics of levosimendan in man after i.v. and oral dosing is described in Sandell, E. -P. et al., J. Cardiovasc. Pharmacol., 26(Suppl. I), S57-S62, 1995. The use of levosimendan in the treatment of myocardial ischemia is described in WO 93/21921. Clinical studies have confirmed the beneficial effects of levosimendan in heart failure patients.
# Firstly, the elimination half-life of levosimendan in human is short, about 1 h. Therefore, using conventional immediate release oral formulations levosimendan should be administered frequently during the day. Secondly, the gastrointestinal absorption of levosimendan is rapid. Therefore, using immediate release oral formulations high peak plasma concentrations of levosimendan are reached rapidly and abruptly, typically within 1 hour. High plasma concentrations of levosimendan tend to increase heart rate which is an undesired effect in heart failure patients.
# The discovery of the active metabolite and its formation route makes it now possible to design controlled release preparations which show a reduced occurrence of undesired effects and which are well suited for the treatment of heart failure patients.
concentration at 1 h ([1]; 1 h after the last dose (day 7)) [ng/mL],concentration at 4 h ([1]; 4 h after the last dose (day 7)) [ng/mL],SMILES,time to reach peak plasma concentrations ([2]; immediate release oral formulations) [h],elimination half-life ([2]; in human),elimination half-life compared with levosimendan [3]
15.4,8.9,"CC1CC(=O)NN=C1c1ccc(NN=C(C#N)C#N)cc1 (single isomer, unassigned; (-)) [Levosimendan, (−)-[[4-(1,4,5,6-tetrahydro-4-methyl-6-oxo-3-pyridazinyl)phenyl]hydrazono]propanedinitrile]",≤ 1,about 1 h,–
–,–,"CC(=O)Nc1ccc(C2=NNC(=O)C[C@H]2C)cc1 [Metabolite (II), (R)-N-[4-(1,4,5,6-tetrahydro-4-methyl-6-oxo-3-pyridazinyl)phenyl]acetamide]",–,–,substantially longer than that of levosimendan
